From paper PMC9046087, “Structural basis of tethered agonism of the adhesion GPCRs ADGRD1 and ADGRF1” (Nature, 2022)
Changes are numbered by the printed parent chain. Ends that are not written are not given here.

Experiments:
ADGRF1 [1] = molecular target: T1, ADGRF1 (Homo sapiens, UniProt Q5T601, K791A); experiment: BRET assay using TRUPATH biosensors, Gs activation of ADGRF1; assay type: cell-based; conditions: Gs, ADGRF1 K791^6.40bA, n = 3
T1 construct: Flag (N); expressed in transfected cells; host or cells: HEK293F
T1 sequence (Q5T601 20-910 K791A): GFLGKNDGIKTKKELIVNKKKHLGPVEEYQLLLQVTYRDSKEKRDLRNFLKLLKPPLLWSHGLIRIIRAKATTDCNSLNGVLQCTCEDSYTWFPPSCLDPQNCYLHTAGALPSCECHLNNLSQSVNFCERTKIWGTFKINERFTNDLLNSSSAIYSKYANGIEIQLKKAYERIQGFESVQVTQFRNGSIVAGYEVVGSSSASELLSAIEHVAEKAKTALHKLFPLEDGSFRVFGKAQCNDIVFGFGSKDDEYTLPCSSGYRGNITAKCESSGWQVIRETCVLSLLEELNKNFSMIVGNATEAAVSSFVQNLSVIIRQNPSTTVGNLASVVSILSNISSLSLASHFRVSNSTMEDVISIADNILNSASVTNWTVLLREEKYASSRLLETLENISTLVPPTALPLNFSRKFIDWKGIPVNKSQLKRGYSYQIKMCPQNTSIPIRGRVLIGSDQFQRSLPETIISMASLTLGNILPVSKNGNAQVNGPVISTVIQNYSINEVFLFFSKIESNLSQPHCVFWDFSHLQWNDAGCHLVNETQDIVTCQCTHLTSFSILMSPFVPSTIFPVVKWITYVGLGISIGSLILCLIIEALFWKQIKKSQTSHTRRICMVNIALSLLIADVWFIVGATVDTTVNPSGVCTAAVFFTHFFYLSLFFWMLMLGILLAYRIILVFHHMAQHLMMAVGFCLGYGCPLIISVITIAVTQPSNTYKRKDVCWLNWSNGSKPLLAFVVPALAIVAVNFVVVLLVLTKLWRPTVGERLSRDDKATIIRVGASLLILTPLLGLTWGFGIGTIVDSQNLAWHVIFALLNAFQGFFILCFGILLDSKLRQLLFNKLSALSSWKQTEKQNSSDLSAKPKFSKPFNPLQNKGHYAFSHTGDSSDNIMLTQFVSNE
Method: (§1) To study the synthetic stalk peptide-induced G protein activation of ADGRD1 and ADGRF1, a BRET assay using TRUPATH biosensors was conducted to measure the proximal interaction between RLuc8 fused to the Gα subunit and GFP2 fused to the Gγ subunit. The TRUPATH suite of biosensors was obtained from Addgene (Addgene kit no. 1000000163) as a gift from B. Roth, including GαsS-RLuc8, Gαi1-RLuc8, Gβ3 and Gγ9-GFP2 as previously described.
(§2) The wild-type or mutant ADGRD1 and ADGRF1 were transiently co-transfected with plasmids encoding Gα-RLuc8 (GαsS-RLuc8 for Gs activation assay; Gαi1-RLuc8 for Gi activation assay), Gβ3 and Gγ9-GFP2 at a ratio of 2:1:1:1 (receptor plasmid, 800 ng; G protein subunit plasmids, 400 ng for each) in 2 ml HEK293F cells at a density of 1.2 × 10^6 cells per ml. Cell cultivation and receptor surface expression measurement were performed as described above. The cells were plated into 96-well white plates (40,000 cells per well) in 60 μl of assay buffer and incubated at 37 °C for 30 min. Then 10 μl of freshly prepared 50 μM coelenterazine 400a (Nanolight Technologies) was added. […] The cells were stimulated with 30 μl of synthetic stalk peptide at different concentrations and the BRET signals were monitored continuously five times. The last measurements were used in data analysis. The BRET ratios were calculated as the ratio of the GFP2 emission to RLuc8 emission.

ADGRF1 [2] = molecular target: T2, ADGRF1 (Homo sapiens, UniProt Q5T601, R623A); experiment: as above; assay type: cell-based; conditions: Gs, ADGRF1 R623^2.46bA, n = 3
T2 construct: Flag (N); expressed in transfected cells; host or cells: HEK293F
T2 sequence (Q5T601 20-910 R623A): T1 sequence (Q5T601 20-910 K791A) with R604A, A772K
Method: as §1, §2

[3] = read-out: pEC50 (mean ± s.e.m.) (converted)

TSFSILMSPFVP [pF1] was tested, and the “Emax (mean ± s.e.m.)” value (ADGRF1 [1]) was 79 ± 13 % of WT, the EC50 (ADGRF1 [1]; [3]) was 912 nM and the “Emax (mean ± s.e.m.)” value (ADGRF1 [2]) was 57 ± 10 % of WT. It also gave an EC50 (ADGRF1 [2]; [3]) of 148 nM.
